Measured values taken from US20080004253A1, “Thiazolopyrimidine modulators of TRPV1” (priority 2006, published 2008).

Legend:
human TRPV1 = biological target: T1, human TRPV1 (Homo sapiens, UniProt Q8NER1); assay: Functional assay: block of capsaicin-induced Ca2+ influx, human assay (hTRPV1/HEK293, FLIPR); assay type: cell-based; conditions: hTRPV1/HEK293 cells, 150 nM capsaicin challenge, Fluo-3 fluorescence; mean; > value = solubility limit in assay medium
T1 construct: expressed in transfected cells; host or cells: HEK293 (hTRPV1/HEK293), zeocin selection
How it was run: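 HEK293 cells stably expressing human TRPV1, fluo3-loaded, preincubated 30 min with compound (serial 3-fold dilutions from 10 μM, duplicate) in 20 μM Ca2+ buffer. Capsaicin response taken as fluo3 fluorescence change before vs 100 s after agonist; IC50 by non-linear regression, mean values; free base or TFA salt.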

rat TRPV1 = biological target: T2, rat TRPV1 (Rattus norvegicus, UniProt O35433); assay: Functional assay: block of capsaicin-induced Ca2+ influx, rat assay (rTRPV1/HEK293, FLIPR); assay type: cell-based; conditions: rTRPV1/HEK293 cells, capsaicin challenge, Fluo-3 fluorescence; mean; > value = solubility limit in assay medium
T2 construct: expressed in transfected cells; host or cells: HEK293 (rTRPV1/HEK293), geneticin selection
How it was run: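 HEK293 cells expressing rat TRPV1, loaded with fluo3 and preincubated 30 min with compound in 20 μM Ca2+ buffer before capsaicin challenge. Block read as fluo3 fluorescence change over 100 s after agonist, 3-fold series from 10 μM in duplicate. IC50 by non-linear regression, mean values.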

T2 sequence (O35433 whole entry): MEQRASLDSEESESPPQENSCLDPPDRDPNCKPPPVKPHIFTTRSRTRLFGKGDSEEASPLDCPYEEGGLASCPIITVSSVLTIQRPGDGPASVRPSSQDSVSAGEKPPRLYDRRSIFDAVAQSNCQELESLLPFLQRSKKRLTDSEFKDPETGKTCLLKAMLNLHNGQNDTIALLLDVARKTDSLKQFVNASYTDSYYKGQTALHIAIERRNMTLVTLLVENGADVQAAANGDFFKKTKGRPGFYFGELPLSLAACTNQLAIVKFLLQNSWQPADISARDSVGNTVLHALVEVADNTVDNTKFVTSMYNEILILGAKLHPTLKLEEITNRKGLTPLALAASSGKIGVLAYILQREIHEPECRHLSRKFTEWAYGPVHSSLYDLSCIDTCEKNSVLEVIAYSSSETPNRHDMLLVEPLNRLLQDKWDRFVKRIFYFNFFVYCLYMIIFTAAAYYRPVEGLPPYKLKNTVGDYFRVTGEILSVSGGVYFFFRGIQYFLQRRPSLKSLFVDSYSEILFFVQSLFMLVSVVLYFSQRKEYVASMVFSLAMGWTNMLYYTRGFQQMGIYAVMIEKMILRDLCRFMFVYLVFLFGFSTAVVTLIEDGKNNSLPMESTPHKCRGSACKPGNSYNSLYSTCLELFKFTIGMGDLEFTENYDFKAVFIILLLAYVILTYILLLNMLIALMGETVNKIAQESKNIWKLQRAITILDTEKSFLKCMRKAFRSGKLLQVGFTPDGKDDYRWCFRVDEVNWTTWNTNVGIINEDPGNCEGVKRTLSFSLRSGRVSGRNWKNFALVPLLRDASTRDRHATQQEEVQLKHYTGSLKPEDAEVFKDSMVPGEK
T1 sequence (Q8NER1 whole entry): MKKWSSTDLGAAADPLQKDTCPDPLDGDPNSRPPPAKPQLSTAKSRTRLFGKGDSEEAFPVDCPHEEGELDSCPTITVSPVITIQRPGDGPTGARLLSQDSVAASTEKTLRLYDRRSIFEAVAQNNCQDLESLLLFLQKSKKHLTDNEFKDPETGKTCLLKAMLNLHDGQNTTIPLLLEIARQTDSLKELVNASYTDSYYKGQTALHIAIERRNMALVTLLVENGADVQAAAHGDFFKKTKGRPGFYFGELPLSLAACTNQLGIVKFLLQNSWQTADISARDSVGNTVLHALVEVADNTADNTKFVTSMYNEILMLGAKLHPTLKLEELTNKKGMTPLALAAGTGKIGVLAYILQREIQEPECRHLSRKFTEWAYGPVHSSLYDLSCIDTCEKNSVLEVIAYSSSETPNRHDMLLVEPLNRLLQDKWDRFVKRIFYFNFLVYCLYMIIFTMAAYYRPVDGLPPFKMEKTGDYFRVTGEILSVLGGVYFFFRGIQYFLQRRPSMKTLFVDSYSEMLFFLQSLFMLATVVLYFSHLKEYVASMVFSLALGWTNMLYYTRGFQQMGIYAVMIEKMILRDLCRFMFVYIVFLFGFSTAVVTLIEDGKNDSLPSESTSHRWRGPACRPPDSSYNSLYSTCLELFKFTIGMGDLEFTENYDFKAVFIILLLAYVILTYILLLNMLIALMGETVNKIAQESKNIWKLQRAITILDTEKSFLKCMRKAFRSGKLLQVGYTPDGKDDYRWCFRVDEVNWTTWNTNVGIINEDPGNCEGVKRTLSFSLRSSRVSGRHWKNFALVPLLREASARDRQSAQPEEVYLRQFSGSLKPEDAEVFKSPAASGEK

IC50 (human TRPV1) [nM]	IC50 (rat TRPV1) [nM]	Compound
8	5	CS(=O)(=O)c1ccc(Nc2nc(NCC3CC3)nc3sc(Nc4c(Cl)cccc4Cl)nc23)cc1 [Example 184, N^5-Cyclopropylmethyl-N^2-(2,6-dichloro-phenyl)-N^7-(4-methanesulfonyl-phenyl)-thiazolo[5,4-d]pyrimidine-2,5,7-triamine]
63	22	FC(F)(F)c1ccc(Nc2nc(N3CCC3)nc3sc(Nc4c(Cl)cccc4Cl)nc23)cc1 [Example 59, 5-Azetidin-1-yl-N^2-(2,6-dichloro-phenyl)-N^7-(4-trifluoromethyl-phenyl)-thiazolo[5,4-d]pyrimidine-2,7-diamine]
6	4	CS(=O)(=O)c1ccc(Nc2ncnc3sc(Nc4c(Cl)cccc4Cl)nc23)cc1 [Example 87, N^2-(2,6-Dichloro-phenyl)-N^7-(4-methanesulfonyl-phenyl)-thiazolo[5,4-d]pyrimidine-2,7-diamine]
1	1	CN(C)S(=O)(=O)c1ccc(Nc2ncnc3sc(Nc4c(Cl)cccc4Cl)nc23)cc1 [Example 75, 4-[2-(2,6-Dichloro-phenylamino)-thiazolo[5,4-d]pyrimidin-7-ylamino]-N,N-dimethyl-benzenesulfonamide]
98	40	CSc1ccc(Nc2ncnc3sc(Nc4c(Cl)cccc4Cl)nc23)cc1Cl [Example 124, N^7-(3-Chloro-4-methylsulfanyl-phenyl)-N^2-(2,6-dichloro-phenyl)-thiazolo[5,4-d]pyrimidine-2,7-diamine]
4	3	Cc1nc(Nc2ccc(S(=O)(=O)N(C)C)cc2)c2nc(Nc3c(C)cccc3C)sc2n1 [Example 85, 4-[2-(2,6-Dimethyl-phenylamino)-5-methyl-thiazolo[5,4-d]pyrimidin-7-ylamino]-N,N-dimethyl-benzenesulfonamide]
324	185	Cc1cccc(C)c1Nc1nc2c(Nc3ccc(C(C)O)cc3)ncnc2s1 (racemic) [Example 140, (racemic)-1-{4-[2-(2,6-Dimethyl-phenylamino)-thiazolo[5,4-d]pyrimidin-7-ylamino]-phenyl}-ethanol]
12	3	FC(F)(F)c1ccc(Nc2ncnc3sc(Nc4c(Cl)cccc4Cl)nc23)cc1 [Example 1, N^2-(2,6-Dichloro-phenyl)-N^7-(4-trifluoromethyl-phenyl)-thiazolo[5,4-d]pyrimidine-2,7-diamine]
26	14	Cc1cccc(C)c1Nc1nc2c(Nc3ccc(C(F)(F)F)c(F)c3)ncnc2s1 [Example 108, N^2-(2,6-Dimethyl-phenyl)-N^7-(3-fluoro-4-trifluoromethyl-phenyl)-thiazolo[5,4-d]pyrimidine-2,7-diamine]
56	51	Cc1cccc(C)c1Nc1nc2c(Nc3ccc(Cl)nc3)ncnc2s1 [Example 119, N^7-(6-Chloro-pyridin-3-yl)-N^2-(2,6-dimethyl-phenyl)-thiazolo[5,4-d]pyrimidine-2,7-diamine]
202	78	O=S(=O)(c1ccc(Nc2ncnc3sc(Nc4c(Cl)cccc4Cl)nc23)cc1)N1CCNCC1 [Example 134, N^2-(2,6-Dichloro-phenyl)-N^7-[4-(piperazine-1-sulfonyl)-phenyl]-thiazolo[5,4-d]pyrimidine-2,7-diamine]
8	2	Cc1nc(Nc2ccc(S(=O)(=O)N3CCCC3)cc2)c2nc(Nc3c(C)cccc3C)sc2n1 [Example 92, N^2-(2,6-Dimethyl-phenyl)-5-methyl-N^7-[4-(pyrrolidine-1-sulfonyl)-phenyl]-thiazolo[5,4-d]pyrimidine-2,7-diamine]
208	55	Cc1nc(Nc2ccc(C(F)(F)F)nc2)c2nc(Nc3c(-c4ccccc4)noc3C)sc2n1 [Example 26, 5-Methyl-N^2-(5-methyl-3-phenyl-isoxazol-4-yl)-N^7-(6-trifluoromethyl-pyridin-3-yl)-thiazolo[5,4-d]pyrimidine-2,7-diamine]
82	25	Cc1nc(Nc2ccc(C(F)(F)F)c(F)c2)c2nc(Nc3c(C)cccc3C)sc2n1 [Example 121, N^2-(2,6-Dimethyl-phenyl)-N^7-(3-fluoro-4-trifluoromethyl-phenyl)-5-methyl-thiazolo[5,4-d]pyrimidine-2,7-diamine]
21	3	CC(C)C1CCCN1c1nc(Nc2ccc(S(C)(=O)=O)cc2)c2nc(Nc3c(Cl)cccc3Cl)sc2n1 (racemic) [Example 177, (racemic)-N^2-(2,6-Dichloro-phenyl)-5-(2-isopropyl-pyrrolidin-1-yl)-N^7-(4-methanesulfonyl-phenyl)-thiazolo[5,4-d]pyrimidine-2,7-diamine]
5	1	Cc1nc(Nc2ccc(C(C)(C)C)cc2)c2nc(Nc3c(Cl)cccc3Cl)sc2n1 [Example 7, N^7-(4-tert-Butyl-phenyl)-N^2-(2,6-dichloro-phenyl)-5-methyl-thiazolo[5,4-d]pyrimidine-2,7-diamine]
5	3	CC(=O)c1ccc(Nc2nc(C)nc3sc(Nc4c(Cl)cccc4Cl)nc23)cc1 [Example 86, 1-{4-[2-(2,6-Dichloro-phenylamino)-5-methyl-thiazolo[5,4-d]pyrimidin-7-ylamino]-phenyl}-ethanone]
51	8	Cc1cccc(C)c1Nc1nc2c(Nc3ccc(C(C)(C)C#N)cc3)ncnc2s1 [Example 32, 2-{4-[2-(2,6-Dimethyl-phenylamino)-thiazolo[5,4-d]pyrimidin-7-ylamino]-phenyl}-2-methyl-propionitrile]
13600	> 20000	CN[C@@H]1CCN(c2nc(Nc3ccc(C(F)(F)F)cc3)c3nc(Nc4c(Cl)cccc4Cl)sc3n2)C1 [Example 183, (3R)-N^2-(2,6-Dichloro-phenyl)-5-(3-methylamino-pyrrolidin-1-yl)-N^7-(4-trifluoromethyl-phenyl)-thiazolo[5,4-d]pyrimidine-2,7-diamine]
> 20000	7130	COc1cc(CNc2ncnc3sc(Nc4c(C)cccc4C)nc23)ccc1O [Example 38, 4-{[2-(2,6-Dimethyl-phenylamino)-thiazolo[5,4-d]pyrimidin-7-ylamino]-methyl}-2-methoxy-phenol]
223	215	FC(F)(F)c1ccc(Nc2ncnc3sc(Nc4c(Cl)cc(CN5CCOCC5)cc4Cl)nc23)cc1 [Example 238, N^2-(2,6-Dichloro-4-morpholin-4-ylmethyl-phenyl)-N^7-(4-trifluoromethyl-phenyl)-thiazolo[5,4-d]pyrimidine-2,7-diamine]
81	39	Cc1cccc(C)c1Nc1nc2c(Nc3ccc(OC(F)(F)F)cc3)ncnc2s1 [Example 28, N^2-(2,6-Dimethyl-phenyl)-N^7-(4-trifluoromethoxy-phenyl)-thiazolo[5,4-d]pyrimidine-2,7-diamine]
1220	349	Cc1cccc(C)c1Nc1nc2c(Nc3ccc(S(=O)(=O)N4CCNCC4)cc3)ncnc2s1 [Example 151, N^2-(2,6-Dimethyl-phenyl)-N^7-[4-(Piperazine-1-sulfonyl)-phenyl]-thiazolo[5,4-d]pyrimidine-2,7-diamine]
5	1	Cc1nc(Nc2ccc(C(F)(F)F)nc2)c2nc(Nc3c(Cl)cccc3Cl)sc2n1 [Example 6, N^2-(2,6-Dichloro-phenyl)-5-methyl-N^7-(6-trifluoromethyl-pyridin-3-yl)-thiazolo[5,4-d]pyrimidine-2,7-diamine]
140	68	N#Cc1cc(Cl)c(Nc2nc3c(Nc4ccc(C(F)(F)F)cc4)ncnc3s2)c(Cl)c1 [Example 234, 3,5-Dichloro-4-[7-(4-trifluoromethyl-phenylamino)-thiazolo[5,4-d]pyrimidin-2-ylamino]-benzonitrile]
129	30	CS(=O)(=O)c1ccc(Nc2ncnc3sc(Nc4ccccc4Cl)nc23)cc1 [Example 126, N^2-(2-Chloro-phenyl)-N^7-(4-methanesulfonyl-phenyl)-thiazolo[5,4-d]pyrimidine-2,7-diamine]
25	26	Cc1nc(Nc2ccc(SC(C)C)cc2)c2nc(Nc3c(C)cccc3C)sc2n1 [Example 106, N^2-(2,6-Dimethyl-phenyl)-N^7-(4-isopropylsulfanyl-phenyl)-5-methyl-thiazolo[5,4-d]pyrimidine-2,7-diamine]
10	7	Cc1nc(Nc2ccc(S(C)(=O)=O)cc2)c2nc(Nc3c(C)cccc3C)sc2n1 [Example 95, N^2-(2,6-Dimethyl-phenyl)-N^7-(4-methanesulfonyl-phenyl)-5-methyl-thiazolo[5,4-d]pyrimidine-2,7-diamine]
> 6670	3190	FC(F)(F)c1ccc(Nc2ncnc3sc(NC4CCCCC4)nc23)cc1 [Example 232, N^2-Cyclohexyl-N^7-[4-(trifluoromethyl)phenyl][1,3]thiazolo[5,4-d]pyrimidine-2,7-diamine]
12	32	Cc1cccc(C)c1Nc1nc2c(Nc3ccc(S(C)(=O)=O)c(F)c3)ncnc2s1 [Example 97, N^2-(2,6-Dimethyl-phenyl)-N^7-(3-fluoro-4-methanesulfonyl-phenyl)-thiazolo[5,4-d]pyrimidine-2,7-diamine]
